Source: patent publication US4015974A, “Amido phosphorothiolates” (priority 1972, dated 1977)
Converted amounts (≈) assume the structure as drawn. Read-outs that look alike come from different tables or passages of the source.

Legend:
Assay type in all cases: in vivo
[1] = test system: rice stem borer (Chilo suppressalis); assay: Lethal effect on rice stem borer (Table 6); details: 50 % emulsifiable concentrate, 1000 fold dilute solution, 4 days after application
Description: Eggs just before hatch of the rice stem borer were applied in a ratio of 100/pot near the root of rice plants grown up into the tillering stage in an […] Wagner's pot. After eggs were hatched and the larvae entered into stems of rice plants, an 1000 fold dilute solution of each 50 % emulsifiable concentrates of the present compounds was applied by means of a turn table.

nematode = assay: Effect on nematode (Table 7); design: tested at 500 ppm; details: 500 p.p.m., 24 hours
Protocol: 0.5 ml. of a nematode-containing aqueous solution separated from food according to Baermann's method was placed in a test tube with ground stopper containing 0.5 ml. of an aqueous dilute solution of each emulsifiable concentrates of the present compounds. The concentration of the active ingredient in the mixture was adjusted to 500 p.p.m. After 24 hours, the death and alive were observed microscopically to calculate the mortality.

[2] = test system: broad-leaved weeds, e.g., monochoria, false pimpernel and toothcup; assay: Water application, herbicidal effect on broad-leaved weeds (Table 2); design: key: 0: not damaged; 5: completely killed; details: 25 days, score 0-5
Summary of the method: (§1)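 Flooded paddy-soil pots with 3-leaf-stage transplanted rice and sown barnyard grass; wettable-powder compounds applied to soil under water. Herbicidal effect and rice phytotoxicity, also on spontaneously germinated broad-leaved weeds, scored 0–5 at 25 days after application.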

[3] = test system: common lambsquarter (Chenopodium album); assay: Pre-emergence application, herbicidal effect on common lambsquarter (Table 1); design: key: 0: not damaged; 5: completely killed; details: 20 days after application, score 0-5
Summary of the method: (§2)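 Pre-emergence soil treatment: seeds sown in pots of about 10 cm and covered with soil, then compounds applied as wettable powder diluted in water. Plants grown in a greenhouse; damage scored 20 days after application from 0 (not damaged) to 5 (completely killed).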

[4] = test system: barnyard grass (Echinochloa crus-galli); assay: Water application, herbicidal effect on barnyard grass (Table 2); design: key: 0: not damaged; 5: completely killed; details: 25 days, score 0-5
Summary of the method: as §1

[5] = test system: carmine mite (Tetranychus telavius); assay: Lethal effect on carmine mite, leaf dipping (Table 3); details: foliar
Protocol: A large number of carmine mite adult were made parasitic on leaves of potted kidney beans at a 2-leaves stage which had elapsed 10 days after sowing. The leaves of kidney bean on which carmine mites had been made parasitic were dipped for 1 minute in each aqueous solution of the present compounds of wettable powder type. Water was given to the leaves not to kill them, and after 48 hours the death and alive were observed microscopically to calculate the mortality. Values of LC50 were obtained from the mortality.

[6] = test system: large crabgrass (Digitaria sanguinalis); assay: Pre-emergence application, herbicidal effect on large crabgrass (Table 1); design: key: 0: not damaged; 5: completely killed; details: 20 days after application, score 0-5
Summary of the method: as §2

radish = assay: Pre-emergence application, herbicidal effect on radish (Table 1); design: key: 0: not damaged; 5: completely killed; details: 20 days after application, score 0-5
Summary of the method: as §2

[7] = test system: barnyard grass (Echinochloa crus-galli); assay: Pre-emergence application, herbicidal effect on barnyard grass (Table 1); design: key: 0: not damaged; 5: completely killed; details: 20 days after application, score 0-5
Summary of the method: as §2

rice = assay: Water application, phytotoxicity on rice (Table 2); design: key: 0: no effect; 1: very slightly affected; 2: slightly affected; 3: moderately affected; 4: considerably affected; 5: completely killed; details: 25 days, score 0-5
Summary of the method: as §1

[8] = test system: redroot pigweed (Amaranthus retroflexus); assay: Pre-emergence application, herbicidal effect on redroot pigweed (Table 1); design: key: 0: not damaged; 5: completely killed; details: 20 days after application, score 0-5
Summary of the method: as §2

[9] = test system: common purslane (Portulaca oleracea); assay: Pre-emergence application, herbicidal effect on common purslane (Table 1); design: key: 0: not damaged; 5: completely killed; details: 20 days after application, score 0-5
Summary of the method: as §2

[10] = test system: broad-leaved weeds, e.g., monochoria, false pimpernel and toothcup; assay: Water application, herbicidal effect on broad-leaved weeds (Table 2); design: key: 0: no effect; 1: very slightly affected; 2: slightly affected; 3: moderately affected; 4: considerably affected; 5: completely killed; details: 10 g/a, 25 days, score 0-5
Description: Wagner pots of 14 cm. in diameter, which had been packed with 1.5 kg. of paddy field soil, were brought into the state of paddy fields. To the pots were transplanted rice seedlings at the 3-leave stage. Further, seeds of barnyard grass (Echinochloa crus-galli) were sowed in the pots and required amounts of test compounds were applied to the soil under water lodged condition. 25 days after application, the degrees of herbicidal activity and phytotoxity were investigated on above-mentioned plants which had been transplanted and sowed, and on broad-leaved weeds, e.g., monochoria (Monochoria viaginalis Presl.), false pimpernel (Linderna pyxidaria) and toothcup (Rotala indica Koehue), which had been spontaneously germinated. The test compounds were used in the form of wettable powder. The herbicidal effects and the phytotoxity were evaluated as follows by the numerals ranging from 0 to 5.

SMILES	Herbicidal effects, broad-leaved weeds ([2]; 20 g/a)	Herbicidal effects, broad-leaved weeds ([2]; 40 g/a)	Herbicidal effect, common lambsquarter ([3]; 10 g./a.)	Herbicidal effect, common lambsquarter ([3]; 20 g./a.)	Herbicidal effect, common lambsquarter ([3]; 40 g./a.)	Herbicidal effects, barnyard grass ([4]; 10 g/a)	Herbicidal effects, barnyard grass ([4]; 20 g/a)	Herbicidal effects, barnyard grass ([4]; 40 g/a)	Herbicidal effect, large crabgrass ([6]; 10 g./a.)	Herbicidal effect, large crabgrass ([6]; 20 g./a.)	Herbicidal effect, large crabgrass ([6]; 40 g./a.)	Herbicidal effect, radish (radish; 10 g./a.)	Herbicidal effect, radish (radish; 20 g./a.)	Herbicidal effect, radish (radish; 40 g./a.)	Herbicidal effect, barnyard grass ([7]; 10 g./a.)	Herbicidal effect, barnyard grass ([7]; 20 g./a.)	Herbicidal effect, barnyard grass ([7]; 40 g./a.)	Phytotoxicity on rice (rice; 10 g/a)	Phytotoxicity on rice (rice; 20 g/a)	Phytotoxicity on rice (rice; 40 g/a)	further results
CCOP(=O)(SCC(=O)N1CCCCC1C)SCC(C)C (centres unmarked) [Compound 6]	–	–	–	–	–	–	–	–	–	–	–	–	–	–	–	–	–	–	–	–	Mortality [1]: 75.0%
CCOP(=O)(SCCC(C)C)SCC(=O)N1CCCCC1C (centres unmarked) [Compound 7]	5	5	5	5	5	5	5	5	5	5	5	0	0	0	5	5	5	0	0	0	Mortality (nematode): 100%; Herbicidal effects, broad-leaved weeds ([2]; 10 g/a): 5; LC50 ([5]; 48 h): 18.5 µg/mL (≈ 50.3 µM); Herbicidal effect, redroot pigweed ([8]; 10 g./a.): 4; Herbicidal effect, redroot pigweed ([8]; 20 g./a.): 5; Herbicidal effect, redroot pigweed ([8]; 40 g./a.): 5; Herbicidal effect, common purslane ([9]; 10 g./a.): 5; Herbicidal effect, common purslane ([9]; 20 g./a.): 5; Herbicidal effect, common purslane ([9]; 40 g./a.): 5
CCOP(=O)(SCC(=O)N1CCCCC1C)SC1CCCCC1 (centres unmarked) [Compound 10]	5	5	3	4	4	5	5	5	4	4	5	0	0	0	4	4	5	0	0	0	Mortality (nematode): 100%; Herbicidal effects, broad-leaved weeds [10]: 4; Herbicidal effect, redroot pigweed ([8]; 10 g./a.): 3; Herbicidal effect, redroot pigweed ([8]; 20 g./a.): 4; Herbicidal effect, redroot pigweed ([8]; 40 g./a.): 4; Herbicidal effect, common purslane ([9]; 10 g./a.): 3; Herbicidal effect, common purslane ([9]; 20 g./a.): 4; Herbicidal effect, common purslane ([9]; 40 g./a.): 4
CCOP(=O)(SCC(=O)N1CCCCC1C)SCc1ccccc1 (centres unmarked) [Compound 11]	5	5	4	4	5	5	5	5	4	5	5	0	0	0	4	5	5	0	0	0	Mortality (nematode): 100%; Herbicidal effects, broad-leaved weeds ([2]; 10 g/a): 5; LC50 ([5]; 48 h): 50 µg/mL (≈ 129 µM); Herbicidal effect, redroot pigweed ([8]; 10 g./a.): 4; Herbicidal effect, redroot pigweed ([8]; 20 g./a.): 5; Herbicidal effect, redroot pigweed ([8]; 40 g./a.): 5; Herbicidal effect, common purslane ([9]; 10 g./a.): 4; Herbicidal effect, common purslane ([9]; 20 g./a.): 4; Herbicidal effect, common purslane ([9]; 40 g./a.): 5
CCCSP(=O)(OCC)SCC(=O)N1CCCCC1CC (centres unmarked) [Compound 14]	5	5	4	5	5	5	5	5	5	5	5	0	0	0	5	5	5	0	0	0	Mortality (nematode): 100%; Herbicidal effects, broad-leaved weeds ([2]; 10 g/a): 5; LC50 ([5]; 48 h): 23.1 µg/mL (≈ 65.3 µM); Herbicidal effect, redroot pigweed ([8]; 10 g./a.): 4; Herbicidal effect, redroot pigweed ([8]; 20 g./a.): 5; Herbicidal effect, redroot pigweed ([8]; 40 g./a.): 5; Herbicidal effect, common purslane ([9]; 10 g./a.): 5; Herbicidal effect, common purslane ([9]; 20 g./a.): 5; Herbicidal effect, common purslane ([9]; 40 g./a.): 5
CCCOP(=O)(SCCc1ccccc1)SCC(=O)N1CCCCC1CC (centres unmarked) [Compound 19]	5	5	3	4	4	5	5	5	4	4	5	0	0	0	4	4	5	0	0	0	Herbicidal effects, broad-leaved weeds [10]: 4; Herbicidal effect, redroot pigweed ([8]; 10 g./a.): 4; Herbicidal effect, redroot pigweed ([8]; 20 g./a.): 4; Herbicidal effect, redroot pigweed ([8]; 40 g./a.): 4; Herbicidal effect, common purslane ([9]; 10 g./a.): 4; Herbicidal effect, common purslane ([9]; 20 g./a.): 4; Herbicidal effect, common purslane ([9]; 40 g./a.): 4
CCCSP(=O)(OC)SCC(=O)N1CCCCC1C (centres unmarked) [Compound 30]	–	–	–	–	–	–	–	–	–	–	–	–	–	–	–	–	–	–	–	–	LC50 ([5]; 48 h): 22.8 µg/mL (≈ 70.1 µM)
CCCCSP(=O)(OC)SCC(=O)N1CCCCC1C (centres unmarked) [Compound 31]	–	–	–	–	–	–	–	–	–	–	–	–	–	–	–	–	–	–	–	–	Mortality [1]: 69.5%
CCCOP(=O)(SCC(=O)N1CCCCC1C)SC(C)C (centres unmarked) [Compound 36]	5	5	4	4	5	5	5	5	4	4	5	0	0	0	4	4	5	0	0	0	Herbicidal effects, broad-leaved weeds [10]: 4; Herbicidal effect, redroot pigweed ([8]; 10 g./a.): 3; Herbicidal effect, redroot pigweed ([8]; 20 g./a.): 4; Herbicidal effect, redroot pigweed ([8]; 40 g./a.): 4; Herbicidal effect, common purslane ([9]; 10 g./a.): 3; Herbicidal effect, common purslane ([9]; 20 g./a.): 4; Herbicidal effect, common purslane ([9]; 40 g./a.): 4
CC(COc1ccc(C(C)(C)C)cc1)OCC(C)OS(=O)OCCl (centres unmarked) [Smite, reference compound]	–	–	–	–	–	–	–	–	–	–	–	–	–	–	–	–	–	–	–	–	LC50 ([5]; leaves dipped 1 minute, wettable powder, 48 hours, read-out: LC50): 102 µg/mL (≈ 269 µM)
